Measurements reported in patent EP2229935A1, “Peptide derivatives or pharmaceutically acceptable salts thereof, method for producing the same, use of said derivatives and pharmaceutical composition” (Nebolsin, Vladimir Evgenievich, priority 1997, dated 1999).
Where two headings read alike, the source gives them in different places. Marks after values point to notes of the source that are not given here.

Tests used:
mongrel guinea-pigs = assay: Food anaphylaxis (active anaphylactic shock) in OVA-sensitized guinea pigs; conditions: oral 3 days before provoking anaphylaxis, 50 µg/kg
[1] = system: thromboxane A2 and prostacycline; assay: Prostacycline to thromboxane ratio in mice with Lewis pulmonary carcinoma; format: in vivo, C57B1 male mice; conditions: mice with transplanted Lewis carcinoma, day 24; 500 µg/kg per day in drinking water
Method: Experiments were carried out on C57B1 male mice weighing 18-20 g. Lewis pulmonary carcinoma (generation 3) transplantation was performed according to a conventional technique [Experimental estrimation of antitumor drugs in the U.S.S.R. and the U.S.A. edited by E.P.Sof'ina, A.B.Syrkin, A.Goldin, A.Kline. Moscow, Meditsina publishers (1980), 296 pp.]. Each group included 8 animals. Administration of compound III at a dose 500 µg/kg per day in drinking water was commenced since 24 hours after tumor transplantation.
Determination of thromboxane A2 and prostacycline was done according to the technique described in example 35. By day 24 of experiments animals were sacrified and the test parameters were determined.
Groups of animals: • Group 1 - intact control. • Group 2 - mice with transplanted Lewis carcinoma. • Group 3 - mice with transplanted Lewis carcinoma + compound III.

mongrel male rats = conditions: po, 96 h;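 also: serum drawn 18 h after the final dose from rats deprived of food over that interval, groups of 10 animals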
Method: Hypolipidemic activity of the compounds of general formula (I) was studied on the model of experimental hyperlipidemia [Arichi H., Kumura H.O. Effects of stibens compounds of roots of polygonum cuspidatium on the lipid metabolism. […] Each group of animals included 10 rats. […] Blood samples were taken for analysis 18 hours after the last administration of the test substances during which period food was taken away from rats.
The following parameters were determined: total cholesterol (total CS); high density lipoprotein cholesterol (HDL-CS); low density lipoprotein cholesterol and very low density lipoprotein cholesterol (LDL-CS and VLDL-CS); triglycerides (TG). Blood serum CS level was determined according to the Ilk method [Biochemical examination in the clinic. […] HDL-CS level was measured in supernatant following heparine-manganese precipitation of LDL+VLDL [Titov V.N., Brener E.D., Khaltaiev N.G., Zadoya A.A., Tvorogova M.G. A method and diagnostic significance of cholesterol level study in α-lipoproteins. […] LDL-CS level determination was carried out by calculation according to the formula presented in the work Friedwald W.T. [Friedwald W.T., Levy K.J., Leus R. Fat transport in lipoproteins: an integrated approach to mechanism and disorders.
To assess the effect of the test compounds on the ratio of atherogenic and antiatherogenic blood serum lipoproteins, cholesterol index (Kcs) was calculated according to the formula presented in the work [Klimov A.N., Nikulcheva N.G. Lipoproteins, dylipoproteinemias and atherosclerosis.
Blood serum TG level was determined using the conventional method [Friedwald W.T., Levy R.I., Fredrickson D.S. Estimation of concentration of low-density lipoprotein cholesterol in plasma, without use of preparative ultracentrifuge.

Wistar male rats = assay: Blood glucose level in rats with streptozotocine diabetes; format: in vivo; conditions: for Blood glucose level: Initial level: intragastral four days
Method: Experiments were carried out on Wistar male rats weighing 250-300 g. Experimental diabetes was induced with single intravenous injection of streptozotocine (the Synthez cooperative enterprise at the IMBG of the Academy of Sciences of Ukraine) at a dose 42 mg/kg to rats which were preliminarily fasting for 24 hours with access to food immediately following injection. Rats were selected for experiment 2 weeks after diabetes induction with glycemia 120-180 mg/dl. Each group included 12 animals.
The compounds were intragastrally administered to intact animals and to rats with streptozotocine diabetes for four days at daily doses 50 µg/kg and 500 µg/kg in water solution at a rate of 1 ml per 200 g of body mass. Intact animals were given the compounds III and XLIV, and rats with induced diabetes were given the compound XLIV. Check blood glucose level determination was done at the day of experiment, then animals were administered the test compounds and were deprived of food. The control animals received a respective water volume. Effect was estimated by change in blood glucose level in 2 and 5 hours. Then animals received forage and 24 hours after the last drug administration blood was again sampled for examination. 0.1 ml of blood were collected from the tail vein. Glucose level was determined using the o-toluidine method.
Glucose level was calculated in mg/dl using standard glucose solutions. Then the degree of change in glucose level in relation to the initial level was determined for each animal with its expression in percent from the initial level. Final calculation was performed for each group of animals. Each group included 10 animals.

[2] = system: encephalomyocarditis virus; assay: Protection of mice against encephalomyocarditis virus infection; format: in vivo; conditions: 100 LD50 virus, once intraperitoneally 24 hours after infection, 30 µg/kg
Method: Studies ere carried out on mongrel mice of both sexes with initial body mass 10-11 g. The control and experimental groups included 30 animals each. Compound XLIV and the reference drug interferon inducer Ridostine were administered once intraperitoneally 24 hours after infection of mice with encephalomyocarditis virus at doses 30 µg/kg and 5.0 mg/kg, respectively. Encephalomyocarditis virus was administered at a dose 100 LD50. Antiviral activity was determined by change in mean lifetime (MLT) of mice and by the degree of protection against lethal viral infection.

Human lymphocytes = assay: PHA-induced blasttransformation of lymphocytes; format: cell-based
Method: Human lymphocytes were used for blasttransformation reaction [Kiseleva E.P., Tsveibakh A.S., Goldman E.I., Pigareva N.V. Application of a micromethod to study blasttransformation of lymphocytes in humans and animals. Immunology (1985), No 1, pp. 76-78]. 10 ml blood were collected into a sterile syringe containing heparine (to final concentration 25 U/ml) and incubated to sediment red blood cells (60-90 minutes at 37°C). Leukocytic suspension layer was selected and the number of nucleated cells was calculated. The cells obtained in such a way were incubated for 72 hours in a humid atmosphere with 5% CO2 at 37°C in the cells of plates for immune reactions in RPMI-1640 medium comprising 15% fetal calf serum, […] Neomycine (incubation mixture volume 0.15 ml). 5 x 10^5 cells were introduced into each plate cell. Incubation was carried out in the presence or absence of mitogen phytohemagglutinin (PHA) (Sigma) […] or concanavalin A (ConA) (Sigma) […] with or without addition of the test compounds at different concentrations. […] H^3 -thymidine in RPMI-1640 medium were introduced into each cell 16 hours before incubation termination. Following culturing period termination, 0.15 ml cellular suspension from each plate cell were transferred on the FN-8 paper filters. Filters were dried, washed two times with normal saline for 5 minutes then twice with TCA for 60 minutes. After drying, radioactivity of samples was calculated on a counter in the ZhS-8 scintillator. Stimulation index was calculated as ratio of sample radioactivity with mitogen to sample radioactivity without mitogen.

Molecule: O=C(O)CCCC(=O)NCCc1c[nH]cn1 [compound III, N-GLUTARYLHISTAMINE]
- Lethality in percent (mongrel guinea-pigs): 6.7** percent
- Prostacycline [1]: 5.80 ± 0.75*^2
- Ratio 6-keto-PGF1α :TXB2 [1]: 0.80 ± 0.11*^2
- Thromboxane A2 [1]: 7.23 ± 0.18*^C
- HDL-CS (mongrel male rats; 0.05 mg/kg): 46,1±2,8**^A
- Kcs (mongrel male rats; 0.05 mg/kg): 0,9±0,04***^A
- LDL-CS+ VLDL-CS (mongrel male rats; 0.05 mg/kg): 41,7±3,1***^A
- Total CS (mongrel male rats; 0.05 mg/kg): 87,8±2,8*^A
- Triglycerides (mongrel male rats; 0.05 mg/kg): 136,4±9,7
- HDL-CS (mongrel male rats; 0.5 mg/kg): 53,1±6,2*^A
- Kcs (mongrel male rats; 0.5 mg/kg): 0,62±0,05***^A
- LDL-CS+ VLDL-CS (mongrel male rats; 0.5 mg/kg): 33,1±2,9***^A
- Total CS (mongrel male rats; 0.5 mg/kg): 86,2±5,6
- Triglycerides (mongrel male rats; 0.5 mg/kg): 90,0±6,7***^A
- Blood glucose level in 2 hours, percent from the initial level (Wistar male rats; 50 µg/kg): 65.4 ± 4.3%
- Blood glucose level in 5 hours, percent from the initial level (Wistar male rats; 50 µg/kg): 43.9 ± 4.9%
- Blood glucose level in 24 hours, percent from the initial level (Wistar male rats; 50 µg/kg): 83.7 ± 6.6%
- Blood glucose level: mg/dl in 2 hours (Wistar male rats; 50 µg/kg): 94.4 ± 5.4 mg/dL
- Blood glucose level: mg/dl in 5 hours (Wistar male rats; 50 µg/kg): 64.1 ± 5.0 mg/dL
- Blood glucose level: mg/dl in 24 hours (Wistar male rats; 50 µg/kg): 122.2 ± 9.2 mg/dL
- Blood glucose level in 2 hours, percent from the initial level (Wistar male rats; 500 µg/kg): 67.6 ± 3.6%
- Blood glucose level in 5 hours, percent from the initial level (Wistar male rats; 500 µg/kg): 44.9 ± 4.5%
- Blood glucose level in 24 hours, percent from the initial level (Wistar male rats; 500 µg/kg): 98.9 ± 10.2%
- Blood glucose level: mg/dl in 2 hours (Wistar male rats; 500 µg/kg): 98.8 ± 5.6 mg/dL
- Blood glucose level: mg/dl in 5 hours (Wistar male rats; 500 µg/kg): 65.1 ± 1.1 mg/dL
- Blood glucose level: mg/dl in 24 hours (Wistar male rats; 500 µg/kg): 143.4 ± 10.9 mg/dL
- Blood glucose level: Initial level (Wistar male rats; 50 µg/kg): 146.9 ± 8.2 mg/dL
- Blood glucose level: Initial level (Wistar male rats; 500 µg/kg): 145.2 ± 10.6 mg/dL

Molecule: γ-L-glutamylhistamine [compound XLIV]
- MLT, days [2]: 12.5* days
- Protection degree, percent [2]: 17.0%
- Survival rate, percent [2]: 30.3* percent
- blasttranformation reaction of human lymphocytes induced by PHA (Human lymphocytes): stimulating effect
- Radioactivity, number of pulses for 20 seconds (Human lymphocytes; 10^-4 M/l, +PHA): 3276 ± 225 number of pulses for 20 seconds
- Stimulation index (Human lymphocytes; 10^-4 M/l, +PHA): 10.9
- Radioactivity, number of pulses for 20 seconds (Human lymphocytes; 10^-4 M/l, no mitogen): 301 ± 103 number of pulses for 20 seconds
- Radioactivity, number of pulses for 20 seconds (Human lymphocytes; 10^-5 M/l, +PHA): 2999 ± 213 number of pulses for 20 seconds
- Stimulation index (Human lymphocytes; 10^-5 M/l, +PHA): 23.2
- Radioactivity, number of pulses for 20 seconds (Human lymphocytes; 10^-5 M/l, no mitogen): 132 ± 13 number of pulses for 20 seconds
- Radioactivity, number of pulses for 20 seconds (Human lymphocytes; 10^-6 M/l, +PHA): 4414 ± 570 number of pulses for 20 seconds
- Stimulation index (Human lymphocytes; 10^-6 M/l, +PHA): 29.6
- Radioactivity, number of pulses for 20 seconds (Human lymphocytes; 10^-6 M/l, no mitogen): 150 ± 33 number of pulses for 20 seconds
- Radioactivity, number of pulses for 20 seconds (Human lymphocytes; 10^-7 M/l, +PHA): 2960 ± 210 number of pulses for 20 seconds
- Stimulation index (Human lymphocytes; 10^-7 M/l, +PHA): 9.9
- Radioactivity, number of pulses for 20 seconds (Human lymphocytes; 10^-7 M/l, no mitogen): 300 ± 107 number of pulses for 20 seconds
- Radioactivity, number of pulses for 20 seconds (Human lymphocytes; 10^-8 M/l, +PHA): 3830 ± 286 number of pulses for 20 seconds
- Stimulation index (Human lymphocytes; 10^-8 M/l, +PHA): 14.7
- Radioactivity, number of pulses for 20 seconds (Human lymphocytes; 10^-8 M/l, no mitogen): 261 ± 100 number of pulses for 20 seconds
